{"source": "patent US8124793B2", "about": "“Derivatives of ethylene methanedisulfonate as cancer chemotherapeutic agents” (priority 2007, dated 2012)", "type_in_all_cases": "cell-based", "key": {"CCRF-CEM": {"test_system": "CCRF-CEM", "experiment": "NCI screen, growth of human tumor cells: Leukemia CCRF-CEM", "details": "CCRF-CEM (Leukemia), 10^−4 molar", "summary_of_the_method": "(§1)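 NCI screening: compound applied to tumor cell lines at a given molar concentration, growth measured as percent. Minimum 60 data points/compound; cancer type noted.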"}, "K562": {"test_system": "K562", "experiment": "NCI screen, growth of human tumor cells: Leukemia K562", "details": "K562 (Leukemia), 10^−4 molar", "summary_of_the_method": "as §1"}, "MOLT-4": {"test_system": "MOLT-4", "experiment": "NCI screen, growth of human tumor cells: Leukemia MOLT-4", "details": "MOLT-4 (Leukemia), 10^−4 molar", "summary_of_the_method": "as §1"}, "RPMI-8226": {"test_system": "RPMI-8226", "experiment": "NCI screen, growth of human tumor cells: Leukemia RPMI-8226", "details": "RPMI-8226 (Leukemia), 10^−4 molar", "summary_of_the_method": "as §1"}, "SR": {"test_system": "SR", "experiment": "NCI screen, growth of human tumor cells: Leukemia SR", "details": "SR (Leukemia), 10^−4 molar", "summary_of_the_method": "as §1"}, "HOP-62": {"test_system": "HOP-62", "experiment": "NCI screen, growth of human tumor cells: Non-Small Cell Lung HOP-62", "details": "HOP-62 (Non-Small Cell Lung), 10^−4 molar", "summary_of_the_method": "as §1"}, "HOP-18": {"test_system": "HOP-18", "experiment": "NCI screen, growth of human tumor cells: Non-Small Cell Lung HOP-18", "summary_of_the_method": "as §1"}, "HOP-92": {"test_system": "HOP-92", "experiment": "NCI screen, growth of human tumor cells: Non-Small Cell Lung HOP-92", "summary_of_the_method": "as §1"}, "NCI-H460": {"test_system": "NCI-H460", "experiment": "NCI screen, growth of human tumor cells: Non-Small Cell Lung NCI-H460", "details": "NCI-H460 (Non-Small Cell Lung), 10^−4 molar", "summary_of_the_method": "as §1"}, "NCI-H23": {"test_system": "NCI-H23", "experiment": "NCI screen, growth of human tumor cells: Non-Small Cell Lung NCI-H23", "details": "NCI-H23 (Non-Small Cell Lung), 10^−4 molar", "summary_of_the_method": "as §1"}, "HCT-116": {"test_system": "HCT-116", "experiment": "NCI screen, growth of human tumor cells: Colon Cancer HCT-116", "details": "HCT-116 (Colon Cancer), 10^−4 molar", "summary_of_the_method": "as §1"}, "HCT-15": {"test_system": "HCT-15", "experiment": "NCI screen, growth of human tumor cells: Colon Cancer HCT-15", "details": "HCT-15 (Colon Cancer), 10^−4 molar", "summary_of_the_method": "as §1"}, "SF-295": {"test_system": "SF-295", "experiment": "NCI screen, growth of human tumor cells: CNS Cancer SF-295", "details": "SF-295 (CNS Cancer), 10^−4 molar", "summary_of_the_method": "as §1"}, "U-251": {"test_system": "U-251", "experiment": "NCI screen, growth of human tumor cells: CNS Cancer U-251", "details": "U-251 (CNS Cancer), 10^−4 molar", "summary_of_the_method": "as §1"}, "LOXIMVI": {"test_system": "LOXIMVI", "experiment": "NCI screen, growth of human tumor cells: Melanoma LOXIMVI", "details": "LOXIMVI (Melanoma), 10^−4 molar", "summary_of_the_method": "as §1"}, "M14": {"test_system": "M14", "experiment": "NCI screen, growth of human tumor cells: Melanoma M14", "details": "M14 (Melanoma), 10^−4 molar", "summary_of_the_method": "as §1"}, "SK-MEL-5": {"test_system": "SK-MEL-5", "experiment": "NCI screen, growth of human tumor cells: Melanoma SK-MEL-5", "details": "SK-MEL-5 (Melanoma), 10^−4 molar", "summary_of_the_method": "as §1"}, "UACC-257": {"test_system": "UACC-257", "experiment": "NCI screen, growth of human tumor cells: Melanoma UACC-257", "details": "UACC-257 (Melanoma), 10^−4 molar", "summary_of_the_method": "as §1"}, "OVCAR-8": {"test_system": "OVCAR-8", "experiment": "NCI screen, growth of human tumor cells: Ovarian Cancer OVCAR-8", "details": "OVCAR-8 (Ovarian Cancer), 10^−4 molar", "summary_of_the_method": "as §1"}, "786-0": {"test_system": "786-0", "experiment": "NCI screen, growth of human tumor cells: Renal Cancer 786-0", "details": "786-0 (Renal Cancer), 10^−4 molar", "summary_of_the_method": "as §1"}, "SN12C": {"test_system": "SN12C", "experiment": "NCI screen, growth of human tumor cells: Renal Cancer SN12C", "details": "SN12C (Renal Cancer), 10^−4 molar", "summary_of_the_method": "as §1"}, "CAKI-1": {"test_system": "CAKI-1", "experiment": "NCI screen, growth of human tumor cells: Renal Cancer CAKI-1", "details": "CAKI-1 (Renal Cancer), 10^−4 molar", "summary_of_the_method": "as §1"}, "MCF 7": {"test_system": "MCF 7", "experiment": "NCI screen, growth of human tumor cells: Breast Cancer MCF 7", "details": "MCF 7 (Breast Cancer), 10^−4 molar", "summary_of_the_method": "as §1"}, "MCF7/ADR-RES": {"test_system": "MCF7/ADR-RES", "experiment": "NCI screen, growth of human tumor cells: Breast Cancer MCF7/ADR-RES", "details": "MCF7/ADR-RES (Breast Cancer), 10^−4 molar", "summary_of_the_method": "as §1"}, "MDA-MB-231/ATCC": {"test_system": "MDA-MB-231/ATCC", "experiment": "NCI screen, growth of human tumor cells: Breast Cancer MDA-MB-231/ATCC", "details": "MDA-MB-231/ATCC (Breast Cancer), 10^−4 molar", "summary_of_the_method": "as §1"}, "MDA-MB-435": {"test_system": "MDA-MB-435", "experiment": "NCI screen, growth of human tumor cells: Breast Cancer MDA-MB-435", "details": "MDA-MB-435 (Breast Cancer), 10^−4 molar", "summary_of_the_method": "as §1"}, "MDA-N": {"test_system": "MDA-N", "experiment": "NCI screen, growth of human tumor cells: Breast Cancer MDA-N", "details": "10^−4 molar", "protocol": "(§2) In the NCI screening process, each compound was tested and described by a minimum of 60 data points. The test data include, but are not limited to the type of cancer, the molar concentration used in the screen, and the percent growth of the cancer. In some cases, NMR and elemental analysis were used for structural assignment."}, "human cancer cells": {"test_system": "human cancer cells", "experiment": "NCI screen summary over the cancers tested (negative growth of human cancer cells)", "details": "10^−4 M conc.; cancers with negative growth / cancers tested", "protocol": "as §2\nThe derivatives in the tables are grouped using the same category as in the tables 1-6."}, "RL": {"test_system": "RL", "experiment": "NCI screen, growth of human tumor cells: Lymphoma RL"}, "KD488": {"test_system": "KD488", "experiment": "NCI screen, growth of human tumor cells: Lymphoma KD488"}, "AS283": {"test_system": "AS283", "experiment": "NCI screen, growth of human tumor cells: Lymphoma AS283"}, "SU-DAL-7": {"test_system": "SU-DAL-7", "experiment": "NCI screen, growth of human tumor cells: Lymphoma SU-DAL-7"}, "PA682": {"test_system": "PA682", "experiment": "NCI screen, growth of human tumor cells: Lymphoma PA682"}}, "data": [{"compound": "O=S1(=O)OCCOS(=O)(=O)C1Cc1nc2ccccc2[nH]1", "note": "[NSC 679042, ethylene 2-benzimidazolyl-1,1-ethanedisulfonate]", "values": [{"measurement": "percent of growth of human tumor cells", "setting": "CCRF-CEM", "value": 15, "unit": "%"}, {"measurement": "percent of growth of human tumor cells", "setting": "K562", "value": 14, "unit": "%"}, {"measurement": "percent of growth of human tumor cells", "setting": "MOLT-4", "value": "−3", "unit": "%"}, {"measurement": "percent of growth of human tumor cells", "setting": "RPMI-8226", "value": "−42", "unit": "%"}, {"measurement": "percent of growth of human tumor cells", "setting": "SR", "value": 12, "unit": "%"}, {"measurement": "percent of growth of human tumor cells", "setting": "HOP-62", "value": 9, "unit": "%"}, {"measurement": "% Growth", "setting": "HOP-18; HOP-18, 10^−4 molar", "value": 18, "unit": "%"}, {"measurement": "% Growth", "setting": "HOP-18; HOP-18, 10^−5 molar", "value": 41, "unit": "%"}, {"measurement": "% Growth", "setting": "HOP-18; HOP-18, 10^−6 molar", "value": 29, "unit": "%"}, {"measurement": "% Growth", "setting": "HOP-18; HOP-18, 10^−7 molar", "value": 51, "unit": "%"}, {"measurement": "% Growth", "setting": "HOP-18; HOP-18, 10^−8 molar", "value": 58, "unit": "%"}, {"measurement": "% Growth", "setting": "HOP-92; HOP-92, 10^−4 molar", "value": 18, "unit": "%"}, {"measurement": "% Growth", "setting": "HOP-92; HOP-92, 10^−5 molar", "value": 41, "unit": "%"}, {"measurement": "% Growth", "setting": "HOP-92; HOP-92, 10^−6 molar", "value": 29, "unit": "%"}, {"measurement": "% Growth", "setting": "HOP-92; HOP-92, 10^−7 molar", "value": 51, "unit": "%"}, {"measurement": "% Growth", "setting": "HOP-92; HOP-92, 10^−8 molar", "value": 56, "unit": "%"}, {"measurement": "percent of growth of human tumor cells", "setting": "NCI-H460", "value": 14, "unit": "%"}, {"measurement": "percent of growth of human tumor cells", "setting": "NCI-H23", "value": 16, "unit": "%"}, {"measurement": "percent of growth of human tumor cells", "setting": "HCT-116", "value": "−31", "unit": "%"}, {"measurement": "percent of growth of human tumor cells", "setting": "HCT-15", "value": 4, "unit": "%"}, {"measurement": "percent of growth of human tumor cells", "setting": "SF-295", "value": 0, "unit": "%"}, {"measurement": "percent of growth of human tumor cells", "setting": "U-251", "value": 21, "unit": "%"}, {"measurement": "percent of growth of human tumor cells", "setting": "LOXIMVI", "value": "−50", "unit": "%"}, {"measurement": "percent of growth of human tumor cells", "setting": "M14", "value": 23, "unit": "%"}, {"measurement": "percent of growth of human tumor cells", "setting": "SK-MEL-5", "value": "−28", "unit": "%"}, {"measurement": "percent of growth of human tumor cells", "setting": "UACC-257", "value": 12, "unit": "%"}, {"measurement": "percent of growth of human tumor cells", "setting": "OVCAR-8", "value": "−33", "unit": "%"}, {"measurement": "percent of growth of human tumor cells", "setting": "786-0", "value": 22, "unit": "%"}, {"measurement": "percent of growth of human tumor cells", "setting": "SN12C", "value": 8, "unit": "%"}, {"measurement": "percent of growth of human tumor cells", "setting": "CAKI-1", "value": "−2", "unit": "%"}, {"measurement": "percent of growth of human tumor cells", "setting": "MCF 7", "value": 6, "unit": "%"}, {"measurement": "percent of growth of human tumor cells", "setting": "MCF7/ADR-RES", "value": 15, "unit": "%"}, {"measurement": "percent of growth of human tumor cells", "setting": "MDA-MB-231/ATCC", "value": 30, "unit": "%"}, {"measurement": "percent of growth of human tumor cells", "setting": "MDA-MB-435", "value": 23, "unit": "%"}, {"measurement": "percent of growth of human tumor cells", "setting": "MDA-N", "value": 3, "unit": "%"}, {"measurement": "Percentage of cancers showing negative growth cancers tested", "setting": "human cancer cells", "value": "10^−4 M conc. = 12/32 = 38%"}, {"measurement": "% Growth", "setting": "RL; 10^−4 molar", "value": "−45", "unit": "%"}, {"measurement": "% Growth", "setting": "RL; 10^−5 molar", "value": 41, "unit": "%"}, {"measurement": "% Growth", "setting": "KD488; KD488, 10^−4 molar", "value": "−39", "unit": "%"}, {"measurement": "% Growth", "setting": "KD488; KD488, 10^−5 molar", "value": 39, "unit": "%"}, {"measurement": "% Growth", "setting": "AS283; AS283, 10^−4 molar", "value": "−25", "unit": "%"}, {"measurement": "% Growth", "setting": "AS283; AS283, 10^−5 molar", "value": 15, "unit": "%"}, {"measurement": "% Growth", "setting": "AS283; AS283, 10^−6 molar", "value": 58, "unit": "%"}, {"measurement": "% Growth", "setting": "AS283; AS283, 10^−7 molar", "value": 54, "unit": "%"}, {"measurement": "% Growth", "setting": "SU-DAL-7; SU-DAL-7, 10^−4 molar", "value": "−42", "unit": "%"}, {"measurement": "% Growth", "setting": "SU-DAL-7; SU-DAL-7, 10^−5 molar", "value": 29, "unit": "%"}, {"measurement": "% Growth", "setting": "SU-DAL-7; SU-DAL-7, 10^−6 molar", "value": 57, "unit": "%"}, {"measurement": "% Growth", "setting": "PA682; PA682, 10^−4 molar", "value": "−34", "unit": "%"}, {"measurement": "% Growth", "setting": "PA682; PA682, 10^−5 molar", "value": 18, "unit": "%"}]}]}
